# According to patent US8569344B2, “N-piperidinyl acetamide derivatives as calcium channel blockers” (Zalicus Pharmaceuticals Ltd., priority 2008, dated 2013):
# Key:
# [1] = biological target: T1, human α1G T-type channels (Homo sapiens, UniProt O43497); experiment: T-type calcium channel block, whole cell patch clamp in HEK cells (α1G); assay type: cell-based; conditions: HEK cells, patch clamp, mainly non-inactivated protocol; values above 10 μM shown as 10 μM, below 0.30 μM shown as 0.30 μM; read-out: T-type Calcium Channel Block α1G IC50
# T1 construct: expressed in transfected cells; host or cells: HEK 293
# [2] = biological target: T2, human α1H T-type channels (Homo sapiens, UniProt O95180); experiment: T-type calcium channel block, whole cell patch clamp in HEK cells (α1H); assay type: cell-based; conditions: HEK cells, patch clamp, mainly non-inactivated protocol; values above 10 μM shown as 10 μM; read-out: T-type Calcium Channel Block α1H IC50
# T2 construct: expressed in transfected cells; host or cells: HEK 293
# Protocol: T-type calcium channel blocking activity was assayed in human embryonic kidney cells, HEK 293, stably transfected with the T-type calcium channel subunits. Briefly, cells were cultured in Dulbecco's modified eagle medium (DMEM) supplemented with 10% fetal bovine serum, 200 U/ml penicillin and 0.2 mg/ml streptomycin at 37° C. with 5% CO2. At 85% confluency cells were split with 0.25% trypsin/1 mM EDTA and plated at 10% confluency on glass coverslips. […] Fresh DMEM was supplied and the cells transferred to 28° C./5% CO2. Cells were incubated for 1 to 2 days prior to whole cell recording.
# Standard patch-clamp techniques were employed to identify blockers of T-type currents. Briefly, previously described HEK cell lines stably expressing human α1G, α1H and α1I T-type channels were used for all the recordings (passage #: 4-20, 37° C., 5% CO2). Whole cell patch clamp experiments were performed using an Axopatch 200B amplifier (Axon Instruments, Burlingame, Calif.) linked to a personal computer equipped with pCLAMP software. Data were analyzed using Clampfit (Axon Instruments) and SigmaPlot 4.0 (Jandel Scientific). To obtain T-type currents, plastic dishes containing semi-confluent cells were positioned on the stage of a ZEISS AXIOVERT S100 microscope after replacing the culture medium with external solution (see below). Whole-cell patches were obtained using pipettes (borosilicate glass with filament, O.D.: 1.5 mm, I.D.: 0.86 mm, 10 cm length), fabricated on a SUTTER P-97 puller with resistance values of ˜5 MΩ (see below for internal solution).
# In the non-inactivating protocol, the holding potential is set at −110 mV and with a pre-pulse at −100 mV for 1 second prior to the test pulse at −40 mV for 50 ms.
# Test compounds were dissolved in external solution, 0.1-0.01% DMSO. After ˜10 min rest, they were applied by gravity close to the cell using a WPI microfil tubing. The “non-inactivated” pre-pulse was used to examine the resting block of a compound. The “inactivated” protocol was employed to study voltage-dependent block. […] Values are shown in μM and values above 10 μM are simply represented as 10 μM.
# T2 sequence (O95180 whole entry): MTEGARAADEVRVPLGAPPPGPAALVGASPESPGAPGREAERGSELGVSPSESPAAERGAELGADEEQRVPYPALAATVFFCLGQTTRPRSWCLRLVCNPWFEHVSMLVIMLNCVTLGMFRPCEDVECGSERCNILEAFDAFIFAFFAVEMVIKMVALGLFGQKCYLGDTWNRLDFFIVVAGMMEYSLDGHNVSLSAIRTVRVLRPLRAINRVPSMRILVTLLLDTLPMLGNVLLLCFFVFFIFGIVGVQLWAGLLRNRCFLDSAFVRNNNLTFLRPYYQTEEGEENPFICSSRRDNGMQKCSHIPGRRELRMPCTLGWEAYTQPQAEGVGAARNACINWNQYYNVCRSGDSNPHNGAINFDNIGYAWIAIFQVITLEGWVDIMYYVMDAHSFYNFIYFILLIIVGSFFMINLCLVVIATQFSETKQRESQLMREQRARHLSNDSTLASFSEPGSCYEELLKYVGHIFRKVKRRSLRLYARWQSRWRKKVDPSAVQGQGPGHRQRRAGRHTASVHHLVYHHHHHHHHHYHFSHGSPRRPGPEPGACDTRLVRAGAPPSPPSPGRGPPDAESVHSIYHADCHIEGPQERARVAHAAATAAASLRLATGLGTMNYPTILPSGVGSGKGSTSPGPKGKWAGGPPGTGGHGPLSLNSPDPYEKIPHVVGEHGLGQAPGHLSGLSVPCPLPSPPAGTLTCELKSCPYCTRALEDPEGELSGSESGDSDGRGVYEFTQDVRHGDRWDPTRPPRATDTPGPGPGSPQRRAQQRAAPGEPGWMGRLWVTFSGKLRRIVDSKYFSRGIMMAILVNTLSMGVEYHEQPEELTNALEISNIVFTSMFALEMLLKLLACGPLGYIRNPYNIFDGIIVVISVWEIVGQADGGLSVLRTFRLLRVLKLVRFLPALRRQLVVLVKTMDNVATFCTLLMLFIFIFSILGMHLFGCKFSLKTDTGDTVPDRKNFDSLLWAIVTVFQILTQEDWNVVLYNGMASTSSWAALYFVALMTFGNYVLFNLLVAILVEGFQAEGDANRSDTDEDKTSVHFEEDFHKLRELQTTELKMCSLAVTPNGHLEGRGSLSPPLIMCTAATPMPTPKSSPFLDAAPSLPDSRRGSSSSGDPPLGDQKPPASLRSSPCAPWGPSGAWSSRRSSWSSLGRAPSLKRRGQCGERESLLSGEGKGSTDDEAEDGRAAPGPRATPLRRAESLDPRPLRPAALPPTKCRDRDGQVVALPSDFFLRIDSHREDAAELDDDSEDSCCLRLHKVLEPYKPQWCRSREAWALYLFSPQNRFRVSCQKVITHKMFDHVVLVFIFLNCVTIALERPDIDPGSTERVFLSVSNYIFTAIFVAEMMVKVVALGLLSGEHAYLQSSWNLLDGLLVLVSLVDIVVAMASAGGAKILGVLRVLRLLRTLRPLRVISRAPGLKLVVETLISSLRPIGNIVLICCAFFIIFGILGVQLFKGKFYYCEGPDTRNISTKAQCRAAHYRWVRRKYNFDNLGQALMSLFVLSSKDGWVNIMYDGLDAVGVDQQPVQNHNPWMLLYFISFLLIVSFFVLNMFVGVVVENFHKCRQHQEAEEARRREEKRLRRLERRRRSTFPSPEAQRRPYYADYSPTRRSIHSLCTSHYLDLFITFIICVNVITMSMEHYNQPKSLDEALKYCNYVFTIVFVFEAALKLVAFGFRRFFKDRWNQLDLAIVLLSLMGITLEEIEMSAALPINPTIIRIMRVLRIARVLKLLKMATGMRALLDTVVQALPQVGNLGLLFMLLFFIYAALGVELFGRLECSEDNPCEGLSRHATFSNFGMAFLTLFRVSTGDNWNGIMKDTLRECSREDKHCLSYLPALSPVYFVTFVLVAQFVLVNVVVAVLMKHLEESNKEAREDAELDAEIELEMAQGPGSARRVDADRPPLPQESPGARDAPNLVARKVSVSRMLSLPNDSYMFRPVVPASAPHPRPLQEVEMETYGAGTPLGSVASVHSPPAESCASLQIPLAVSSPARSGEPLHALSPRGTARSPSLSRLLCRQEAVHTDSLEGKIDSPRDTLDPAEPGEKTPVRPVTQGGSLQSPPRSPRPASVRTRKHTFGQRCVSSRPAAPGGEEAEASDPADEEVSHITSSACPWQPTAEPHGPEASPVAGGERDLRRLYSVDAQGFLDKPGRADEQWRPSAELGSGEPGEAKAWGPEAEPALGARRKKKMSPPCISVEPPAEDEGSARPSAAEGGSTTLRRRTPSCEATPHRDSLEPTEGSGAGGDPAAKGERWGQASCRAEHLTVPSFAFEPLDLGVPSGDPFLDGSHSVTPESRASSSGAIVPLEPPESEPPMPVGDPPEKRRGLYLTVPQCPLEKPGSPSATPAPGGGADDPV
# T1 sequence (O43497 whole entry): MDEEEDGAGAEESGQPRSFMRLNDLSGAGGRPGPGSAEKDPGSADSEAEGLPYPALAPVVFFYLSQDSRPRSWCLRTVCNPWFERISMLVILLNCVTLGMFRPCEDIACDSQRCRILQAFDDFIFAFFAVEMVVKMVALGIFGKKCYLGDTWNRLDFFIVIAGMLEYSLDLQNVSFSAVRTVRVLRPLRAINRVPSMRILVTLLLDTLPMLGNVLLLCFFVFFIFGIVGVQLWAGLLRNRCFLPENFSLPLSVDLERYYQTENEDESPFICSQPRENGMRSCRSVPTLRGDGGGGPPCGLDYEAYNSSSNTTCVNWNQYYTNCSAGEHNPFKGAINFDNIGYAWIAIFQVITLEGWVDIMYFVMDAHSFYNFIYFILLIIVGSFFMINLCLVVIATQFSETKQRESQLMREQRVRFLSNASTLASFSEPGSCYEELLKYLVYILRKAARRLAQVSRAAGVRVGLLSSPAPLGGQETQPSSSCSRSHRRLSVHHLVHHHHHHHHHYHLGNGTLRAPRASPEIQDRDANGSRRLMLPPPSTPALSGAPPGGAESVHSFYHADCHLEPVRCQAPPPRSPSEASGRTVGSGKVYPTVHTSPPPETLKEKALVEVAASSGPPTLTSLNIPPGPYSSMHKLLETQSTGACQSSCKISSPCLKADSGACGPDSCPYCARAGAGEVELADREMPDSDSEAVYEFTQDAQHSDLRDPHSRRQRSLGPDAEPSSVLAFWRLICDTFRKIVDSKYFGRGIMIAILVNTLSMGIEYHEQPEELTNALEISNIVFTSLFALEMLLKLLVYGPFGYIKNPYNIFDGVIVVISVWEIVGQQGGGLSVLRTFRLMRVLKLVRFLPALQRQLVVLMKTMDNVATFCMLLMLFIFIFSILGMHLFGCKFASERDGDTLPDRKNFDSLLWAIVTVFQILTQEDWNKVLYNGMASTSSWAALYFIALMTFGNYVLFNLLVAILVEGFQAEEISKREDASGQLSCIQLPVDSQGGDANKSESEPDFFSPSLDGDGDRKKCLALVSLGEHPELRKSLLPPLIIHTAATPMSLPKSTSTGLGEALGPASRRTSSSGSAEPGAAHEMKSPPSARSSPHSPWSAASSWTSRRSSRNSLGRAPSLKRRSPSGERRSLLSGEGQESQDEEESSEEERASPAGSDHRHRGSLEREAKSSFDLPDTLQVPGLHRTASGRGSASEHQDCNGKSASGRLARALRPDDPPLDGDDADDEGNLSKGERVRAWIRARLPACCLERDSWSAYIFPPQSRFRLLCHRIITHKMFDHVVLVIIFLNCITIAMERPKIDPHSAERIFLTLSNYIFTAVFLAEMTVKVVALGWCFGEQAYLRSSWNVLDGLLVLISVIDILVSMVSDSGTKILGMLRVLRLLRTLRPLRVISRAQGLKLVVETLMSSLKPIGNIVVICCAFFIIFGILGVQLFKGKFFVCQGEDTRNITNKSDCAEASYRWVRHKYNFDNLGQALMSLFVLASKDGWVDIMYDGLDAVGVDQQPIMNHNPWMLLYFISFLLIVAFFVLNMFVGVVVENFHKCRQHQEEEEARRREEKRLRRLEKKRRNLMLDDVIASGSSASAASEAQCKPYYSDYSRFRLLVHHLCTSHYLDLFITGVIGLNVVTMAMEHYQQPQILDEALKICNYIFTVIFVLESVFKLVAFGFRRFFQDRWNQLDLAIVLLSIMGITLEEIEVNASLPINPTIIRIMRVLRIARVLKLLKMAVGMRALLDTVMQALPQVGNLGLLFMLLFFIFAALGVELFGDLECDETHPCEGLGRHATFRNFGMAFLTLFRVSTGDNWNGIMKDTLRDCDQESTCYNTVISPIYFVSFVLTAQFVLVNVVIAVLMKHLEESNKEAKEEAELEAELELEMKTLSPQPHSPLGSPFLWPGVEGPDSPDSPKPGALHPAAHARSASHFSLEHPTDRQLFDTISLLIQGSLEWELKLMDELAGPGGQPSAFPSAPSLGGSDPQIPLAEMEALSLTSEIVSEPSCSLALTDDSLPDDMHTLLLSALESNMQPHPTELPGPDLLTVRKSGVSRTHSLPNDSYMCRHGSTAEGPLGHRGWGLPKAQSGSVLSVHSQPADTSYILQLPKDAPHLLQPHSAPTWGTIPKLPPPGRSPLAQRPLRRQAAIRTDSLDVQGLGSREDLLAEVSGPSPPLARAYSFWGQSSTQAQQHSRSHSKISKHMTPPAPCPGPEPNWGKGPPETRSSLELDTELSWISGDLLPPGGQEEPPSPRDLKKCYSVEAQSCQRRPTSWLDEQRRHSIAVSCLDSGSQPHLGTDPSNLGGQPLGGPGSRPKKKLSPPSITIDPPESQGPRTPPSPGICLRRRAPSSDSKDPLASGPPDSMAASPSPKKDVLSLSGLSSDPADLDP
SMILES,IC50 [1],IC50 [2]
"Cc1cc(C)cc(C(=O)NCC2CCN(CCNC(=O)C3(C(F)(F)F)CC3)CC2)c1 [Compound 497, 3,5-dimethyl-N-((1-(2-(1-(trifluoromethyl)cyclopropanecarbox-amido)ethyl)piperidin-4-yl)methyl) benzamide]",0.77 µM,0.16 µM
"O=C(NCC1CCN(CC2(NS(=O)(=O)C3CC3)CC2)CC1)c1cc(C(F)(F)F)cc(C(F)(F)F)c1 [Compound 359, N-((1-((1-(cyclopropanesulfonamido)cyclopropyl)methyl)piperidin-4-yl)methyl)-3,5-bis(trifluoromethyl)benzamide]",0.38 µM,0.49 µM
"O=C(CN1CCC(CNC(=O)c2cccc(Cl)c2)CC1)NC1CCCC1 [Compound 534, 3-chloro-N-((1-(2-(cyclopentylamino)-2-oxoethyl)piperidin-4-yl)methyl) benzamide]",0.38 µM,0.42 µM
"CC(C)(C(=O)NCCN1CCC(CNC(=O)c2cc(C(F)(F)F)cc(S(C)(=O)=O)c2)CC1)C(F)(F)F [Compound 587, 3-(methylsulfonyl)-N-((1-(2-(3,3,3-trifluoro-2,2-dimethyl-propanamido)ethyl)piperidin-4-yl)methyl)-5-(trifluoromethyl) benzamide]",> 10 µM,3.59 µM
"CCNC(=O)NC1(CN2CCC(CNC(=O)c3cc(C(F)(F)F)cc(C(F)(F)F)c3)CC2)CCCC1 [Compound 11, N-((1-((1-(3-ethylureido)cyclopentyl)methyl)piperidin-4-yl)methyl)-3,5-bis(trifluoromethyl)benzamide]",1.89 µM,3.8 µM
"COC1CCN(CC(=O)N2CCC(CNC(=O)c3cc(C(F)(F)F)cc(C(F)(F)F)c3)CC2)CC1 [Compound 251, N-((1-(2-(4-methoxypiperidin-1-yl)acetyl)piperidin-4-yl)methyl)-3,5-bis(trifluoromethyl)benzamide]",> 10 µM,> 10 µM
"O=C(NCC1CCN(CC(=O)N2CC[C@H](C(F)(F)F)C2)CC1)c1cc(C(F)(F)F)cc(C(F)(F)F)c1 [Compound 348, (S)-N-((1-(2-oxo-2-(3-(trifluoromethyl)pyrrolidin-1-yl)ethyl)piperidin-4-yl)methyl)-3,5-bis(trifluoromethyl)benzamide]",< 0.3 µM,0.11 µM
"Cc1cc(F)cc(C(=O)NCC2CCN(CCNS(=O)(=O)C(C)(C)C)CC2)c1 [Compound 575, N-((1-(2-(1,1-dimethylethylsulfonamido)ethyl)piperidin-4-yl)methyl)-3-fluoro-5-methylbenzamide]",1.25 µM,1.04 µM
"CC(C)(C(=O)NCCN1CCC(CNC(=O)c2cc(C(F)(F)F)cc(C(F)(F)F)c2)CC1)C(F)(F)F [Compound 338, N-((1-(2-(3,3,3-trifluoro-2,2-dimethylpropanamido)ethyl)piperidin-4-yl)methyl)-3,5-bis(trifluoromethyl) benzamide]",< 0.3 µM,0.16 µM
"O=C(NCC1CCN(C(=O)CN2CCCC(F)(F)C2)CC1)c1cc(C(F)(F)F)cc(C(F)(F)F)c1 [Compound 256, N-((1-(2-(3,3-difluoropiperidin-1-yl)acetyl)piperidin-4-yl)methyl)-3,5-bis(trifluoromethyl)benzamide]",5.57 µM,> 10 µM
"CC(C)(C)C1CCN(CC(=O)N2CCC(CNC(=O)c3cc(C(F)(F)F)cc(C(F)(F)F)c3)CC2)CC1 [Compound 258, N-((1-(2-(4-tert-butylpiperidin-1-yl)acetyl)piperidin-4-yl)methyl)-3,5-bis(trifluoromethyl)benzamide]",1.18 µM,3.24 µM
"COc1cc(F)cc(C(=O)NCC2CCN(CCNS(=O)(=O)C(C)C)CC2)c1 [Compound 318, 3-fluoro-5-methoxy-N-((1-(2-(1-methylethylsulfonamido)ethyl)piperidin-4-yl)methyl)benzamide]",0.5 µM,0.87 µM
"Cc1ccc(-c2csc(NC(=O)CC3CCN(CC(O)C(C)(C)C)CC3)n2)cc1 (centres unmarked) [Compound 172, 2-(1-(2-hydroxy-3,3-dimethylbutyl)piperidin-4-yl)-N-(4-p-tolylthiazol-2-yl)acetamide]",1.62 µM,> 10 µM
"CC1(C(=O)N2CC(N3CCC(CNC(=O)c4cc(F)cc(Cl)c4)CC3)C2)CC1 [Compound 608, 3-chloro-5-fluoro-N-((1-(1-(1-methylcyclopropanecarbonyl)azetidin-3-yl)piperidin-4-yl)methyl)benzamide]",–,> 10 µM
"CC(C)CS(=O)(=O)NCCN1CCC(CNC(=O)c2cc(C(F)(F)F)cc(C(F)(F)F)c2)CC1 [Compound 27, N-((1-(2-(2-methylpropylsulfonamido)ethyl)piperidin-4-yl)methyl)-3,5-bis(trifluoromethyl)benzamide]",–,0.19 µM

# Other lines, results leading:
IC50 [1],IC50 [2],SMILES
< 0.3 µM,0.17 µM,"CC(C)COC(=O)NCCN1CCC(CNC(=O)c2cc(C(F)(F)F)cc(C(F)(F)F)c2)CC1 [Compound 37, isobutyl 2-(4-((3,5-bis(trifluoromethyl)benzamido)methyl)piperidin-1-yl)ethylcarbamate]"
2.06 µM,3.76 µM,"CC(C)(C)NCC(=O)N1CCC(CNC(=O)c2cc(F)cc(C(F)(F)F)c2)CC1 [Compound 265, N-((1-(2-(tert-butylamino)acetyl)piperidin-4-yl)methyl)-3-fluoro-5-(trifluoromethyl)benzamide]"
> 10 µM,> 10 µM,"NC1(C(=O)NCCN2CCC(CNC(=O)c3cc(F)cc(C(F)(F)F)c3)CC2)CCC1 [Compound 571, N-((1-(2-(1-aminocyclobutanecarboxamido)ethyl)piperidin-4-yl)methyl)-3-fluoro-5-(trifluoromethyl) benzazmide]"
1.84 µM,2.14 µM,"COCC(COC)NC(=O)CN1CCC(CNC(=O)c2cc(F)cc(C(F)(F)F)c2)CC1 [Compound 354, N-((1-(2-(1,3-dimethoxypropan-2-ylamino)-2-oxoethyl)piperidin-4-yl)methyl)-3-fluoro-5-(trifluoromethyl) benzamide]"
2.36 µM,0.77 µM,"CN(CCN1CCC(CNC(=O)c2cc(F)cc(C(F)(F)F)c2)CC1)C(=O)NC1CCCCC1 [Compound 525, N-((1-(2-(3-cyclohexyl-1-methylureido)ethyl)piperidin-4-yl)methyl)-3-fluoro-5-(trifluoromethyl) benzamide]"
< 0.3 µM,0.12 µM,"O=C(NCC1CCN(CCNC(=O)C2(C(F)(F)F)CCCC2)CC1)c1cc(F)cc(C(F)(F)F)c1 [Compound 341, 3-fluoro-5-(trifluoromethyl)-N-((1-(2-(1-(trifluoromethyl)cyclopentanecarbox-amido)ethyl)piperidin-4-yl)methyl) benzamide]"
< 0.3 µM,0.06 µM,"CCC(C)(C)NC(=O)CN1CCC(CNC(=O)c2cc(F)cc(C(F)(F)F)c2)CC1 [Compound 353, 3-fluoro-N-((1-(2-oxo-2-(tert-pentylamino)ethyl)piperidin-4-yl)methyl)-5-(trifluoromethyl)benzamide]"
8.24 µM,> 10 µM,"CCCNC(=O)CN1CCC(CNC(=O)c2cccc(OC(F)(F)F)c2)CC1 [Compound 453, N-((1-(2-oxo-2-(proyplamino)ethyl)piperidin-4-yl)methyl)-3-(trifluoromethoxy)benzamide]"
> 10 µM,> 10 µM,"C[C@@H]1CCCCN1CC(=O)N1CCC(CNC(=O)c2cc(F)cc(C(F)(F)F)c2)CC1 [Compound 279, (R)-3-fluoro-N-((1-(2-(2-methyl-piperidin-1-yl)acetyl)piperidin-4-yl)methyl)-5-(trifluoromethyl)benzamide]"
9.15 µM,3.08 µM,"CCCNC(=O)CN1CCC(CNC(=O)c2cc(F)cc(OC)c2)CC1 [Compound 447, 3-fluoro-5-methoxy-N-((1-(2-oxo-2-(propylamino)ethyl)piperidin-4-yl)methyl)benzamide]"
–,0.43 µM,"O=C(CC1CC1)NCCN1CCC(CNC(=O)c2cc(C(F)(F)F)cc(C(F)(F)F)c2)CC1 [Compound 63, N-((1-(2-(2-cyclopropylacetamido)ethyl)piperidin-4-yl)methyl)-3,5-bis(trifluoromethyl)benzamide]"
–,7.56 µM,"COCCC(=O)NCCN1CCC(CNC(=O)c2cc(C(F)(F)F)cc(C(F)(F)F)c2)CC1 [Compound 68, N-((1-(2-(3-methoxypropanamido)ethyl)piperidin-4-yl)methyl)-3,5-bis(trifluoromethyl) benzamide]"
